This passage reports residual activity results from ChEMBL document CHEMBL1152560, “Substituted 2-arylbenzothiazoles as kinase inhibitors: hit-to-lead optimization” (Bioorg Med Chem, 2009).

Structures are written as SMILES.

The target of test [1] is Tyrosine-protein kinase Fer (Homo sapiens) (UniProt P16591). Put plainly: Residual activity of FER at 1 uM by microplate scintillation counting.
In test [2] the target is Calcium/calmodulin-dependent protein kinase kinase 2 (Homo sapiens) (UniProt Q96RR4). Kind of test: Residual activity of CAMKK2 at 10 uM by microplate scintillation counting.
For test [3], the target named is T1, Discoidin domain-containing receptor 2 (Homo sapiens) (UniProt Q16832).
T1 sequence (whole entry): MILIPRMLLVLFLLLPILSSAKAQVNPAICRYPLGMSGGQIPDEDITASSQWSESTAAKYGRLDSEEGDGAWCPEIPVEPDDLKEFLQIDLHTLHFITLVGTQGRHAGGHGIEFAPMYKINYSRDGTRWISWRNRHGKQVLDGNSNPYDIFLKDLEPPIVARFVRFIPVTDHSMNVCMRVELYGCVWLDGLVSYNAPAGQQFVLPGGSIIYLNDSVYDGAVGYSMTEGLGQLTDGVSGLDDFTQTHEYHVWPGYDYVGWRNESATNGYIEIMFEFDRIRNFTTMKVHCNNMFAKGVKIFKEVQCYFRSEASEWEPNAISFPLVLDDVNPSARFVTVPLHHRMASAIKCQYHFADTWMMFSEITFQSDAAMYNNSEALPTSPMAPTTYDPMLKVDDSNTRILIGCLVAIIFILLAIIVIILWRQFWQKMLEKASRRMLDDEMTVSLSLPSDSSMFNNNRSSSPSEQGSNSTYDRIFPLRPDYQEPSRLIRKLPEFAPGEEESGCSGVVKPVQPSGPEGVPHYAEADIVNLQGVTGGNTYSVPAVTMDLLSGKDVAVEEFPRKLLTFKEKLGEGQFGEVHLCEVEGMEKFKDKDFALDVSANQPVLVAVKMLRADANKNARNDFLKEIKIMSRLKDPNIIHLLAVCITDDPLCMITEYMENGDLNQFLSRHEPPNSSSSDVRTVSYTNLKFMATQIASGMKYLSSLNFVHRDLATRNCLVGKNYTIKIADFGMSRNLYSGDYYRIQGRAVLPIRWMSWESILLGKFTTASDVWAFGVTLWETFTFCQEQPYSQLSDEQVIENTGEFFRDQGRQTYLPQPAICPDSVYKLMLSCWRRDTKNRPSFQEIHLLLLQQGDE
Put plainly: Residual activity of DDR2 at 10 uM by microplate scintillation counting.

Test [4] concerns the target CDK1/Cyclin A (Homo sapiens) (UniProt P06493+P20248). Put plainly: Residual activity of CDK1/Cyclin A at 10 uM by microplate scintillation counting. It is filed as protein-complex assay.
Test [5] concerns the target Cyclin-dependent kinase 2/cyclin E1 (Homo sapiens) (UniProt P24864+P24941). Kind of test: Residual activity of CDK2/Cyclin E at 1 uM by microplate scintillation counting. It counts as protein-complex assay.
Test [6] addresses RAC-alpha serine/threonine-protein kinase (Homo sapiens) (UniProt P31749). Put plainly: Residual activity of AKT1 at 10 uM by microplate scintillation counting.
Test [7] has as its target T2, Inhibitor of nuclear factor kappa-B kinase subunit beta (Homo sapiens) (UniProt O14920).
T2 sequence (whole entry): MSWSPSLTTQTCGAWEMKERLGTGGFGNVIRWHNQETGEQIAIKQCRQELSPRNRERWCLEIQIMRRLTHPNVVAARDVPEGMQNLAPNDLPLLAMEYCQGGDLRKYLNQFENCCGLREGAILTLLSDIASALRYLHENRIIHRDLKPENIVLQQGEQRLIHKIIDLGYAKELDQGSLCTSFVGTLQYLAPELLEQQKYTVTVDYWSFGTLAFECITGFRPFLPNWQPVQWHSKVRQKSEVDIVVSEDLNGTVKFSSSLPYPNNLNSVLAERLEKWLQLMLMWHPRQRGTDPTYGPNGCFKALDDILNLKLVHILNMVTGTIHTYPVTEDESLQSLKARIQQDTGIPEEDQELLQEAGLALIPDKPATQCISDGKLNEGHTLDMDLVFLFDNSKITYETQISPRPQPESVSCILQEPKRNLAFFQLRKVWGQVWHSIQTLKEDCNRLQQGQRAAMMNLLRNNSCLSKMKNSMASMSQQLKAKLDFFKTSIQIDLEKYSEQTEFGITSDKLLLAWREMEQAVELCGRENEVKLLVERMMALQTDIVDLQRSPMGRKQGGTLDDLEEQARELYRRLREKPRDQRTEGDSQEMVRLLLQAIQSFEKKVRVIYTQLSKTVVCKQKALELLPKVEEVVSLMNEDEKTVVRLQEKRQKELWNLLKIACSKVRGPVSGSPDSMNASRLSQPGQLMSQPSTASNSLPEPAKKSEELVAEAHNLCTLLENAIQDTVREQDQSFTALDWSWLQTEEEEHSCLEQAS
Kind of test: Residual activity of IKK-beta at 0.1 uM by microplate scintillation counting.

In test [8] the target is Ribosomal protein S6 kinase alpha-6 (Homo sapiens) (UniProt Q9UK32). Kind of test: Residual activity of RPS6KA6 at 1 uM by microplate scintillation counting.
Test [9] deals with T3, Ephrin type-B receptor 4 (Homo sapiens) (UniProt P54760).
T3 sequence (whole entry): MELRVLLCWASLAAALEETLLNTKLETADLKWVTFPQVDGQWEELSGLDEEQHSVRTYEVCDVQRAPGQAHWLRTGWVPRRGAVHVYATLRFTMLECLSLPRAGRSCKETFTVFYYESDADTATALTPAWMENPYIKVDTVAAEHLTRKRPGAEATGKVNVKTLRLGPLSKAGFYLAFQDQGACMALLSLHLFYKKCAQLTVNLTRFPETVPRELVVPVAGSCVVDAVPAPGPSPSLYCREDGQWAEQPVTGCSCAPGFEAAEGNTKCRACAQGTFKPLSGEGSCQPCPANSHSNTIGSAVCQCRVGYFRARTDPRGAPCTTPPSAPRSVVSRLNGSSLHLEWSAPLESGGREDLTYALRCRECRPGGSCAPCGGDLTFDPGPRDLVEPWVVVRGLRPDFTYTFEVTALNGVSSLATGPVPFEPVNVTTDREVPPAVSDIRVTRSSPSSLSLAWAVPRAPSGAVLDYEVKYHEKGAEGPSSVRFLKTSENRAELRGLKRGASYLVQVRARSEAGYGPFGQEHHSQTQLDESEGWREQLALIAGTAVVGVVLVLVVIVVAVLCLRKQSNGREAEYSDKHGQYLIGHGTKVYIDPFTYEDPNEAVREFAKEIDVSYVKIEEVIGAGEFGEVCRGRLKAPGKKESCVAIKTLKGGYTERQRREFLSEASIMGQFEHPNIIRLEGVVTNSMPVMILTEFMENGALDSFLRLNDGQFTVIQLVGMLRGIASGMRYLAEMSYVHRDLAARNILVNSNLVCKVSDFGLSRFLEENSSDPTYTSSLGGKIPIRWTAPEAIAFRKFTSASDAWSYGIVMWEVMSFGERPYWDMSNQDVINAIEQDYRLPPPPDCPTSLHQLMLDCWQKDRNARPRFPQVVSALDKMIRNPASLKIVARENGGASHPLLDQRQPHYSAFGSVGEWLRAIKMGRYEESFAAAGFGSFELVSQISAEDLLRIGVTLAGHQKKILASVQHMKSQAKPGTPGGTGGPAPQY
Kind of test: Residual activity of EPHB4 at 1 uM by microplate scintillation counting.

Chain of CDK1/Cyclin A (Homo sapiens) (P06493 whole entry, looked up): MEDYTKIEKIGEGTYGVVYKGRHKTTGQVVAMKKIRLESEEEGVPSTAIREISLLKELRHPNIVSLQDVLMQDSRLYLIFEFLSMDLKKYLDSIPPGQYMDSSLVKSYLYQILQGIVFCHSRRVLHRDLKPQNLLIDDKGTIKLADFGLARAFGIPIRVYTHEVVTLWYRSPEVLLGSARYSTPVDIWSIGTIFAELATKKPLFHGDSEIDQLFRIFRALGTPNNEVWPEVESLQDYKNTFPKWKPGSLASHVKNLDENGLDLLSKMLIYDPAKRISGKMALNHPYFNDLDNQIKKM
Chain of CDK1/Cyclin A (Homo sapiens) (P20248 whole entry, looked up): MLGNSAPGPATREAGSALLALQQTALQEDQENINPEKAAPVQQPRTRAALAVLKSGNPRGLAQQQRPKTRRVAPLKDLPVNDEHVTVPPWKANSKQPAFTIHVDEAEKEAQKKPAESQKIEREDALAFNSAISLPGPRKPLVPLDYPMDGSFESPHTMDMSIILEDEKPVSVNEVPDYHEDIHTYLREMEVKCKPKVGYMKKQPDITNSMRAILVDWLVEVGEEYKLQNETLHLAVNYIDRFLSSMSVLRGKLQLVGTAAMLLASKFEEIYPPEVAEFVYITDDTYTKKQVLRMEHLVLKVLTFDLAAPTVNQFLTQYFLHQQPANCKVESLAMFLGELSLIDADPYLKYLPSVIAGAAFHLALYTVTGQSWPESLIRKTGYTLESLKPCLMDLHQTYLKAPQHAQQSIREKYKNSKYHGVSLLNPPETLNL
Chain of RAC-alpha serine/threonine-protein kinase (Homo sapiens) (P31749 whole entry): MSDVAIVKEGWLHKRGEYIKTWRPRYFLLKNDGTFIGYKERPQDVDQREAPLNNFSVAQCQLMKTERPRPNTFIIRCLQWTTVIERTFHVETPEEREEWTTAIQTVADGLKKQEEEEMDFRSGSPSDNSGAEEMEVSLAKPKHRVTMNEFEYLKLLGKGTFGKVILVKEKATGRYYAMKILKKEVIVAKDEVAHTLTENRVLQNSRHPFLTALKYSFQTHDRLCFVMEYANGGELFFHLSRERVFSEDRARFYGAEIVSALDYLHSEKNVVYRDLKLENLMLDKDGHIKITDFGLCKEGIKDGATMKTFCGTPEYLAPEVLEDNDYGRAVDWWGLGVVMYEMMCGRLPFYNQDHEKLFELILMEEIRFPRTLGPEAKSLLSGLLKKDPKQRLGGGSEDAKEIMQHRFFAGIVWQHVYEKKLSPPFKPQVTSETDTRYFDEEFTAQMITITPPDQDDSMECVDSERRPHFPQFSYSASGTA
Chain of Ribosomal protein S6 kinase alpha-6 (Homo sapiens) (Q9UK32 whole entry): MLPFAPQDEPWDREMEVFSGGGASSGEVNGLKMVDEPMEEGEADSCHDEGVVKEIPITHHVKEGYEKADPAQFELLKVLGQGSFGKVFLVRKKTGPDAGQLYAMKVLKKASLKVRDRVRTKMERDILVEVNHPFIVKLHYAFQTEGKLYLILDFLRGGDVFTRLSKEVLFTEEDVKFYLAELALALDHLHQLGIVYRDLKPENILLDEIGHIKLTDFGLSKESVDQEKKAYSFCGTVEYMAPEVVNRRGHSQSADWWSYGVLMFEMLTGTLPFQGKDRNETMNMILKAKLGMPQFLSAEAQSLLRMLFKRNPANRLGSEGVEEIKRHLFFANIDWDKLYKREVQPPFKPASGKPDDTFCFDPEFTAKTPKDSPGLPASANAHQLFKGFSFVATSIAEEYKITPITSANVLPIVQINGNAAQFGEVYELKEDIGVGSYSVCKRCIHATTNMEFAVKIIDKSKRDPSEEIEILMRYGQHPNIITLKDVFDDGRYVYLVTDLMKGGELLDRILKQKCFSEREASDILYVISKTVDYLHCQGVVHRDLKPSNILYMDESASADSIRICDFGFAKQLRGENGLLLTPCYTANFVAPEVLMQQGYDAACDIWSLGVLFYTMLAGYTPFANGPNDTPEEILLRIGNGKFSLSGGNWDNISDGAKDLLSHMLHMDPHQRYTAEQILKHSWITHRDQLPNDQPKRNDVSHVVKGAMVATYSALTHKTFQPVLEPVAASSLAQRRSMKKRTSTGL
Chain of Tyrosine-protein kinase Fer (Homo sapiens) (P16591 whole entry, looked up): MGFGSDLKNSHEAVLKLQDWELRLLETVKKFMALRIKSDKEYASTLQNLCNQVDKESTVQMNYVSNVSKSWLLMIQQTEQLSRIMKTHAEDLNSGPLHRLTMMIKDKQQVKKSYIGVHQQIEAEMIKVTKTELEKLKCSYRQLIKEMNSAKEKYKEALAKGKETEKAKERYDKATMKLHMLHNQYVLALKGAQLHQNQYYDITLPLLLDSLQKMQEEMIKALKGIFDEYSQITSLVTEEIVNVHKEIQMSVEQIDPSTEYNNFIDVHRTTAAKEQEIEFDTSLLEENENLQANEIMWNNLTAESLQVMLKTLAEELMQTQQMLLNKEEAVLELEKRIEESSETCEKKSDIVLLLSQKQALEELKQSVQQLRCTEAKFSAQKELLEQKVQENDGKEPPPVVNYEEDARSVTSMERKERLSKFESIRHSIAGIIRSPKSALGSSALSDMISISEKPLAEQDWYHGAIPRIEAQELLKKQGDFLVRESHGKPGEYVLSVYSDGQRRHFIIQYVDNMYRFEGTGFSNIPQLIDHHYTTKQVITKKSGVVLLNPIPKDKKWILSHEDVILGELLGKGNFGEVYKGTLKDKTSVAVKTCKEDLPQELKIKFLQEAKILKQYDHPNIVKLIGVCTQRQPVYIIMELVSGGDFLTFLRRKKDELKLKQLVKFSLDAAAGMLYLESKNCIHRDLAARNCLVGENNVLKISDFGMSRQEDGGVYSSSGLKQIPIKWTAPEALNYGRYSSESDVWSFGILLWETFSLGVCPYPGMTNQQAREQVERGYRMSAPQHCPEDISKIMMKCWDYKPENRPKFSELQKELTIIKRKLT
Chain of Calcium/calmodulin-dependent protein kinase kinase 2 (Homo sapiens) (Q96RR4 2-588 limits assumed): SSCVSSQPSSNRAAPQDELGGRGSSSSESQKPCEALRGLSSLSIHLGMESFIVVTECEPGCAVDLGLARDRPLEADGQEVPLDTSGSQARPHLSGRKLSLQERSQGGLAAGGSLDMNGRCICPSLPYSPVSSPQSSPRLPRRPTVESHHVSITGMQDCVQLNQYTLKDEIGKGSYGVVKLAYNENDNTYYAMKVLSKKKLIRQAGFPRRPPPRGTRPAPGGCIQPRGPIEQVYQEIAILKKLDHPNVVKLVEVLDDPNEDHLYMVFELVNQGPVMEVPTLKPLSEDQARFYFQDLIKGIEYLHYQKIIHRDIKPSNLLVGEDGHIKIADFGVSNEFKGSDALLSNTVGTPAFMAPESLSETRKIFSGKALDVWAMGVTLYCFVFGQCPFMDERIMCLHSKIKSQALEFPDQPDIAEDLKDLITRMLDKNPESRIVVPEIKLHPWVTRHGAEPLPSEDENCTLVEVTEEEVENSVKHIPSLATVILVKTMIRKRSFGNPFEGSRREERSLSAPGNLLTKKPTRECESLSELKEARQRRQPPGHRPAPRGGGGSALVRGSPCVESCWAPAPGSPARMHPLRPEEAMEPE

On to `COc1cc2c(Oc3ccc(-c4nc5ccccc5s4)cc3)ncnc2cc1OCCCN1CCCC1`, for which the residual activity (as a rule, the signal under treatment as a percentage of the control signal) in [1] was 103%; in test [2], 97%; in test [3], 42%; in test [4], 117%; in test [5], 94%; in test [6] it was 87%. Also, the residual activity in [7] amounted to 91%; in test [8] it was 95%; in test [9], 127%.

Take `COc1cc2c(Oc3ccc(-c4nc5ccccc5s4)cc3F)ncnc2cc1OCCCN1CCN(C)CC1`: the residual activity was 96% in test [1]; 112% in test [2]; 30% in [3]; 112% in [4]; 94% in [5]; 105% in test [6]. In addition, the residual activity turned out to be 85% in test [7], 97% in test [8] and 114% in test [9].

`COc1cc2c(Oc3ccc(-c4nc5ccccc5s4)cc3)ncnc2cc1OCCCN1CCN(C)CC1`: the residual activity worked out at 107% in test [1]; 109% in test [2]; 25% in test [3]; 129% in test [4]; 102% in test [5]; 120% in [6]. For the same molecule, the residual activity in [7] came out at 96%; in [8], 101%; in test [9], 127%.
